Where “and” joins values, the source holds several entries; their conditions need not be identical. Identical values can stand only once. Like-named read-outs stand apart in the source and are kept apart here.
How the values were obtained:
[1] = target: T1, human histamine H1R (Homo sapiens, UniProt P35367); experiment: Competition radioligand binding with [3H]mepyramine on homogenates of HEK293T cells expressing HA-H1R; details: for pKi shift: pKi PSScis – pKi trans (log unit)
T1 construct: expressed in transfected cells; host or cells: HEK293T cells, transient expression; cell homogenates
Procedure: For 10c and 12c, continuous illumination at 365 nm was used to counteract the short half-lives of their PSScis states, while for the other compounds PSScis states were obtained by pre-illumination with 360 nm.
Experimental methods – Pharmacology
The homogenates were stored at −20 °C. […] A]erwards, the cell homogenates were incubated with the respecIve (photo)ligands in […]
black 96 well plates (Greiner). During the incubaIon Ime, 10c and 12c were conInuousl y i l l umi nated with 365 nm (10 V, 2 mW, constant mode) light (96 LED array plates, LAD-1, LEDA-x, Bio Research Center Co., Ltd. Izumi, Japan) to account for thei r short-lived cis isomers. A]er a 4-hour incubaIon Ime, the binding reacIon was stopped using a harvester (PerkinElmer). Upon mulIple wa s h ste ps through a polyethyleneimine-coated GF/C ﬁlter plate (PerkinElmer) receptor-bound radioligand was captured by the GF/C ﬁlter plate. A]er drying the GF/C plate, the ﬁlter-bound radioligand was quanIﬁed by scinIllaIon counIng using MicroScint-O and the Wallac MicroBeta counter (PerkinElmer). […]

[2] = UV-vis absorption spectroscopy; details: 25 μM in HBSS buffer containing 50% DMSO; for λmax trans: π–π* band; for λmax cis: n–π* band
Procedure: (§1) The photochemical properties of the photoswitchable ligands (Table 1, Fig. S2–S10) were first characterized by UV-vis absorption spectroscopy.
(§2) Experimental procedures – Photochemistry
(§3) equipped with a thermostated cell holder set at 20 °C. Fits of UV−vis spectroscopy data were generated
(§4) IlluminaIon for all photochemical experiments was executed using a Suter
(§5) instruments Lambda LS with a 300 W full-spectrum lamp connected to a Suter instruments Lambda
For photochemical analyses,
(§6) IlluminaIons for pharmacological experiments were performed in cylindrical clear glass vials with a
(§7) The typi cal di stance between l i ght source and vi al or cuvete was 2 cm.

[3] = Thermal relaxation of PSScis states; details: for Approximate t1/2 (thermal relaxation of PSScis): HBSS buffer containing 50% DMSO; for thermal half-lives (approximated dark stability), order of magnitude in words: in buffer
Procedure: as §1, §2, §3, §4, §5
For photochemical analyses,
as §6, §7

[4] = target: hH1R; details: cited from earlier work; for pKi hH1R PSScis: PSScis state; for pKi hH1R trans: trans isomer
[5] = tested on: gpH1R; set-up: method as in PMID 30628180; details: cited from earlier work; for pA2 gpH1R PSScis: PSScis state; for pA2 gpH1R trans: trans isomer
[6] = Photostationary state by LC-MS at the isosbestic point; details: 10 mM in DMSO; for PSStrans (area% trans): after illumination of PSScis state with 434 ± 9 nm; for PSScis (area% cis): after illumination of trans isomer with 360 ± 20 nm
Procedure: as §1, §2, §3, §4, §5
For photochemical analyses,
as §6, §7

[7] = continuous illumination at 365 nm during 4 h incubation at 25 °C, mean ± SEM, n = 3, read-out: pKi PSScis (converted)
[8] = trans isomer (8: template, not photoswitchable), [3H]mepyramine, mean ± SEM, n = 3, read-out: pKi trans (converted)
[9] = PSScis state obtained by pre-illumination with 360 nm, mean ± SEM, n = 3, read-out: pKi PSScis (converted)
[10] = Arrhenius extrapolation to 20 °C
[11] = trans isomer (8: template, not photoswitchable), [3H]mepyramine, mean ± SEM, n = 3

T1 sequence (P35367 whole entry): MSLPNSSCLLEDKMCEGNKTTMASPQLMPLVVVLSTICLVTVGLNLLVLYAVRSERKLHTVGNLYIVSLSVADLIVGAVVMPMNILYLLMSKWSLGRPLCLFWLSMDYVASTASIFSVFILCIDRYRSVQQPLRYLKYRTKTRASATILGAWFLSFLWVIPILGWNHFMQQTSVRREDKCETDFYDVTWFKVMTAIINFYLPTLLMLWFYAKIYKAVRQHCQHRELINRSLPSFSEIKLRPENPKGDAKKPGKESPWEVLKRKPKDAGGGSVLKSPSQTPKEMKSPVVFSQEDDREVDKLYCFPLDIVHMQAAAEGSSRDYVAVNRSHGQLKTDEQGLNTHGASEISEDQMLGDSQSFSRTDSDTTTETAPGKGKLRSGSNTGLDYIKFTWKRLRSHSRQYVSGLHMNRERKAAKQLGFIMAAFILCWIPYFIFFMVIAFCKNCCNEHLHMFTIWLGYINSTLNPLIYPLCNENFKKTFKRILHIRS

SMILES	pKi shift [1]	Ki [1, 8]	λmax trans [2]	thermal half-lives (approximated dark stability), order of magnitude in words [3]	Ki [1, 9]	λmax cis [2]	PSStrans (area% trans) [6]	PSScis (area% cis) [6]	Approximate t1/2 (thermal relaxation of PSScis) [3, 10]	further results
Clc1ccc2c(c1)CCc1cccnc1C2=C1CCN(Cc2ccccc2/N=N/c2ccccc2)CC1 [12c]	−0.1	3.98 nM	329 nm	seconds						Ki [1, 7]: 5.01 nM; Approximate t1/2 (thermal relaxation of PSScis) ([3]; 20 °C): 0.000521 days
CN1CCC(Oc2cccc(/N=N/c3ccccc3)c2)CC1 [compound 5]										pKi hH1R PSScis [4]: < 5.0; pKi hH1R trans [4]: < 5.0
CN1CCN(/C(=N\c2ccc(/N=N/c3ccc(S(=O)(=O)O)cc3)cc2)c2ccc(Cl)cc2)CC1 [compound 2]										pA2 gpH1R PSScis [5]: 4.7 ± 0.1; pA2 gpH1R trans [5]: 5.9 ± 0.1
Clc1ccc2c(c1)CCc1cc(/N=N/c3ccccc3)cnc1C2=C1CCNCC1 [10b]	−0.3	2 nM	335 nm	months	3.98 nM	430 nm	79 area%	87 area%	31 days	
CN1CCN(/C(=N\c2ccc(/N=N/c3ccc([N+](=O)[O-])cc3)cc2)c2ccc(Cl)cc2)CC1 [compound 3]										pA2 gpH1R PSScis [5]: 4.5 ± 0.1; pA2 gpH1R trans [5]: 6.2 ± 0.1
CN1CCC(Oc2ccccc2/N=N/c2ccccc2)CC1 [compound 6]										pKi hH1R PSScis [4]: 5.1; pKi hH1R trans [4]: 5.2
CCOC(=O)N1CCC(=C2c3ccc(Cl)cc3CCc3cccnc32)CC1 [compound 7, loratadine]										pKi hH1R [4]: 6.8 ± 0.1
c1ccc(/N=N/c2ccc3c(c2)CCc2cccnc2C3=C2CCNCC2)cc1 [11b]	−0.6	126 nM	338 nm	days	501 nM	435 nm	80 area%	91 area%	5 days	
Clc1cc2c(cc1/N=N/c1ccccc1)C(=C1CCNCC1)c1ncccc1CC2 [11a]	−0.2	~158 nM and 158 nM	340 nm	months	251 nM	429 nm	79 area%	97 area%	78 days	
Clc1ccc2c(c1)CCc1c(/N=N/c3ccccc3)ccnc1C2=C1CCNCC1 [10c]		158 nM	319 nm	minutes		419 nm				Ki [1, 7]: 158 nM; pKi trans [1, 11]: 6.8 ± 0.0; Approximate t1/2 (thermal relaxation of PSScis) ([3]; 20 °C): 0.0104 days
CN1CCC(Oc2ccccc2Cc2ccccc2)CC1 [compound 4]										pKi hH1R [4]: 8.7 ± 0.1
CN1CCN(C2=Nc3ccc(Cl)cc3Oc3ccccc32)CC1 [compound 1]										pKi hH1R [4]: 8.1 ± 0.1
Clc1ccc2c(c1)CCc1cccnc1C2=C1CCN(Cc2cccc(/N=N/c3ccccc3)c2)CC1 [12b]	−0.1	5.01 nM	325 nm	months	6.31 nM	423 nm	81 area%	91 area%	198 days	
Clc1ccc2c(c1/N=N/c1ccccc1)CCc1cccnc1C2=C1CCNCC1 [11c]		> 1000 nM		months	> 1000 nM	419 nm	82 area%	67 area%	211 days	pKi PSScis ([1]; PSScis state obtained by pre-illumination with 360 nm, mean ± SEM, n = 3): <6.0; pKi trans [1, 11]: <6.0
Cc1cncc(CN2CCC(=C3c4ccc(Cl)cc4CCc4cccnc43)CC2)c1 [compound 9, rupatadine]										pKi hH1R [4]: 8.4
Clc1ccc2c(c1)CCc1ccc(/N=N/c3ccccc3)nc1C2=C1CCNCC1 [10a]	−0.5	5.01 nM	332 nm	months	15.8 nM	429 nm	85 area%	91 area%	38 days	Ki ([1]; trans isomer, read-out: Ki trans): 2 nM; fold higher H1R affinity compared to 11b ([1]; trans isomers): approximately 25 fold; light-induced affinity shift ([1]; trans vs PSScis): 3.2 fold
Clc1ccc2c(c1)CCc1cccnc1C2=C1CCN(Cc2ccc(/N=N/c3ccccc3)cc2)CC1 [12a]	−0.1	2.51 nM	327 nm	days	3.16 nM	432 nm	83 area%	93 area%	19 days	
